This is an account of results in patent US20240228535A1 (priority 2022, published 2024).

This assay has as its target SARS2 coronavirus 3CL protease (Severe acute respiratory syndrome coronavirus 2, UniProt P0DTD1). Nature of the assay: biochemical. As to conditions: 5 nM enzyme, 30 min pre-incubation with compound, 15 μM peptide substrate, 4 h at room temperature; read-out: FRET Potency (nM); IC50 values in the SARS2 3CLPro FRET assay.
For the molecule `CNC(=O)C(=O)[C@H](C[C@@H]1C[C@@H](C)NC1=O)NC(=O)c1cc(Cl)ccc1NC(=O)CCC(F)(F)F` [Example 178, 5-chloro-N-[(1S)-3-(methylamino)-1-[[(3S,5R)-5-methyl-2-oxo-pyrrolidin-3-yl]methyl]-2,3-dioxo-propyl]-2-(4,4,4-trifluorobutanoylamino) benzamide], the IC50 worked out at 7 nM.
For the molecule `CNC(=O)C(=O)[C@H](C[C@@H]1CCNC1=O)NC(=O)c1cc(Cl)ccc1NC(=O)C(C)c1cscn1` (stereo partly drawn) [Example 179, 5-chloro-N-[(1S)-3-(methylamino)-2,3-dioxo-1-[[(3S)-2-oxopyrrolidin-3-yl]methyl]propyl]-2-(2-thiazol-4-ylpropanoylamino)benzamide], the IC50 was 2.5 nM.
The result for `CNC(=O)C(=O)[C@H](C[C@@H]1CCNC1=O)NC(=O)c1cc(Cl)ccc1NC(=O)OC(C)C(F)(F)F` (stereo partly shown) [Example 180] reads 4.5 nM.
Take `CNC(=O)C(=O)[C@H](C[C@@H]1C[C@@H](C)NC1=O)NC(=O)c1cc(Cl)ccc1NC(=O)OCC(F)(F)F` [Example 181, 2,2,2-trifluoroethyl N-[4-chloro-2-[[(1S)-3-(methylamino)-1-[[(3S,5R)-5-methyl-2-oxo-pyrrolidin-3-yl]methyl]-2,3-dioxo-propyl]carbamoyl]phenyl] carbamate]: the IC50 was 7.2 nM.
As to `CNC(=O)C(=O)[C@H](C[C@@H]1C[C@@H](C)NC1=O)NC(=O)c1cc(Cl)ccc1NC(=O)[C@@H]1CN(C)C(=O)O1` [Example 182, (5S)-N-[4-chloro-2-[[(1S)-3-(methylamino)-1-[[(3S,5R)-5-methyl-2-oxo-pyrrolidin-3-yl]methyl]-2,3-dioxo-propyl]carbamoyl]phenyl]-3-methyl-2-oxo-oxazolidine-5-carboxamide], the IC50 amounted to 6.7 nM.
The result for `CNC(=O)C(=O)[C@H](C[C@@H]1C[C@@H](C)NC1=O)NC(=O)c1cc(Cl)ccc1NC(=O)c1cncc(C#N)c1` [Example 183] reads 10.1 nM.
The value for `CNC(=O)C(=O)[C@H](C[C@@H]1C[C@@H](C)NC1=O)NC(=O)c1cc(Cl)ccc1NC(=O)C1CCCC1(F)F` (stereo partly drawn) [Example 184, 5-chloro-2-[(2,2-difluorocyclopentanecarbonyl)amino]-N-[(1S)-3-(methylamino)-1-[[(3S,5R)-5-methyl-2-oxo-pyrrolidin-3-yl]methyl]-2,3-dioxo-propyl]benzamide] was 13.5 nM; that for `CNC(=O)C(=O)[C@H](C[C@@H]1C[C@@H](C)NC1=O)NC(=O)c1cc(Cl)ccc1NC(=O)C1CCCC1(F)F` (stereo partly drawn) [Example 185, 5-chloro-2-[(2,2-difluorocyclopentanecarbonyl)amino]-N-[(1S)-3-(methylamino)-1-[[(3S,5R)-5-methyl-2-oxo-pyrrolidin-3-yl]methyl]-2,3-dioxo-propyl]benzamide] was 9 nM; that for `CNC(=O)C(=O)[C@H](C[C@@H]1C[C@@H](C)NC1=O)NC(=O)c1cc(Cl)ccc1NC(=O)OCC1CC1(F)F` (stereo partly drawn) [Example 186, (2,2-difluorocyclopropyl)methyl N-[4-chloro-2-[[(1S)-3-(methylamino)-1-[[(3S,5R)-5-methyl-2-oxo-pyrrolidin-3-yl]methyl]-2,3-dioxo-propyl]carbamoyl]phenyl] carbamate] was 2.5 nM.
The result for `CNC(=O)C(=O)[C@H](C[C@@H]1C[C@@H](C)NC1=O)NC(=O)c1cc(Cl)ccc1NC(=O)OCC1CC1(F)F` (stereo partly drawn) [Example 187, (2,2-difluorocyclopropyl)methyl N-[4-chloro-2-[(1S)-3-(methylamino)-1-[[(3S,5R)-5-methyl-2-oxo-pyrrolidin-3-yl]methyl]-2,3-dioxo-propyl]carbamoyl]phenyl] carbamate] reads 2.5 nM; that for `CNC(=O)C(=O)[C@H](C[C@@H]1C[C@@H](C)NC1=O)NC(=O)c1cc(Cl)ccc1NC(=O)OC1CC(F)(F)C1` [Example 188, (3,3-difluorocyclobutyl) N-[4-chloro-2-[(1S)-3-(methylamino)-1-[[(3S,5R)-5-methyl-2-oxo-pyrrolidin-3-yl]methyl]-2,3-dioxo-propyl]carbamoyl]phenyl] carbamate], 7.2 nM.
Turning to `CNC(=O)C(=O)[C@H](C[C@@H]1C[C@@H](C)NC1=O)NC(=O)c1cc(Cl)ccc1NC(=O)C1CC1C(F)(F)F` (stereo partly drawn) [Example 189, 5-chloro-N-[(1S)-3-(methylamino)-1-[[(3S,5R)-5-methyl-2-oxo-pyrrolidin-3-yl]methyl]-2,3-dioxo-propyl]-2-[[2-(trifluoromethyl)cyclopropane-carbonyl]amino]benzamide], the IC50 came to 3.5 nM.
The value for `CNC(=O)C(=O)[C@H](C[C@@H]1C[C@@H](C)NC1=O)NC(=O)c1cc(Cl)ccc1NC(=O)C1CC1C(F)(F)F` (stereo partly drawn) [Example 190, 5-chloro-N-[(1S)-3-(methylamino)-1-[[(3S,5R)-5-methyl-2-oxo-pyrrolidin-3-yl]methyl]-2,3-dioxo-propyl]-2-[[2-(trifluoromethyl)cyclopropane-carbonyl]amino]benzamide] was 3.1 nM; that for `O=C(Nc1ccc(Cl)cc1C(=O)N[C@@H](C[C@@H]1CCNC1=O)C(=O)C(=O)NC1CC1)OCC(F)(F)F` [Example 191, 2,2,2-trifluoroethyl N-[4-chloro-2-[[(1S)-3-(cyclopropylamino)-2,3-dioxo-1-[[(3S)-2-oxopyrrolidin-3-yl]methyl]propyl]carbamoyl]phenyl]carbamate] was 16.1 nM; that for `C[C@@H]1C[C@@H](C[C@H](NC(=O)c2cc(Cl)ccc2NC(=O)C2CCOCC2)C(=O)C(=O)NC2CC2)C(=O)N1` [Example 192, N-[4-chloro-2-[[(1S)-3-(cyclopropylamino)-1-[[(3S,5R)-5-methyl-2-oxo-pyrrolidin-3-yl]methyl]-2,3-dioxo-propyl]carbamoyl]phenyl]tetra-hydropyran-4-carboxamide] was 10.3 nM.
The value for `C[C@@H]1C[C@@H](C[C@H](NC(=O)c2cc(Cl)ccc2NC(=O)[C@@H]2CNC(=O)O2)C(=O)C(=O)NC2CC2)C(=O)N1` [Example 193, (5S)-N-[4-chloro-2-[[(1S)-3-(cyclopropylamino)-1-[[(3S,5R)-5-methyl-2-oxo-pyrrolidin-3-yl]methyl]-2,3-dioxo-propyl]carbamoyl]phenyl]-2-oxo-oxazolidine-5-carboxamide] was 5.2 nM; that for `C[C@@H]1C[C@@H](C[C@H](NC(=O)c2cc(Cl)ccc2NC(=O)N2CCOCC2)C(=O)C(=O)NC2CC2)C(=O)N1` [Example 194, N-[4-chloro-2-[[(1S)-3-(cyclopropylamino)-1-[[(3S,5R)-5-methyl-2-oxo-pyrrolidin-3-yl]methyl]-2,3-dioxo-propyl]carbamoyl]phenyl] morpholine-4-carboxamide] was 6.8 nM; that for `CNC(=O)C(=O)[C@H](C[C@@H]1C[C@@H](C)NC1=O)NC(=O)c1cc(Cl)ccc1NC(=O)C(C)c1cscn1` (stereo partly drawn) [Example 195, 5-chloro-N-[(1S)-3-(methylamino)-1-[[(3S,5R)-5-methyl-2-oxo-pyrrolidin-3-yl]methyl]-2,3-dioxo-propyl]-2-(2-thiazol-4-ylpropanoylamino)benzamide] was 3.1 nM.
For `CNC(=O)C(=O)[C@H](C[C@@H]1CCNC1=O)NC(=O)c1cc(F)ccc1NC(=O)c1ccnc(C(F)(F)F)c1` [Example 196, N-[4-fluoro-2-[[(1S)-3-(methylamino)-2,3-dioxo-1-[[(3S)-2-oxopyrrolidin-3-yl]methyl]propyl]carbamoyl]phenyl]-2-(trifluoromethyl)pyridine-4-carboxamide], the IC50 was 7.6 nM.
